Reference: patent US8552037B2, “Tricyclic compound and pharmaceutical use thereof” (Takeda Pharmaceutical Company Limited, priority 2006, dated 2013)

Tested on: not given
Test: not given
Details: not given

melting point [°C]	Compound
134 to 137	Cc1nc2ccc3c(c2o1)C(CCNC(=O)C1CC1)CC3 (centres unmarked) [Example 43, N-[2-(2-Methyl-7,8-dihydro-6H-indeno[5,4-d][1,3]oxazol-8-yl)ethyl]cyclopropanecarboxamide]
135 to 138	CC(=O)NCCC1=C(C(C)C)Cc2ccc3nc(C)oc3c21 [Example 49, N-[2-(7-Isopropyl-2-methyl-6H-indeno[5,4-d][1,3]oxazol-8-yl)ethyl]acetamide]

Further lines, the compound ahead of its results:

Compound	melting point [°C]
CC(=O)NCCC1CCc2ccc3nc(CCc4ccccc4)oc3c21 (centres unmarked) [Example 32, N-{2-[2-(2-Phenylethyl)-7,8-dihydro-6H-indeno[5,4-d][1,3]oxazol-8-yl]ethyl}acetamide]	85 to 87
CC(=O)NCCC1CCc2ccc3nc(CCCc4ccccc4)oc3c21 (centres unmarked) [Example 33, N-{2-[2-(3-Phenylpropyl)-7,8-dihydro-6H-indeno[5,4-d][1,3]oxazol-8-yl]ethyl}acetamide]	95 to 97
CSc1nc2ccc3c(c2o1)C(CCNC(C)=O)CC3 (centres unmarked) [Example 39, N-{2-[2-(Methylthio)-7,8-dihydro-6H-indeno[5,4-d][1,3]oxazol-8-yl]ethyl}acetamide]	115 to 117
Cc1nc2ccc3c(c2o1)C(CCNC(=O)c1ccccc1)CC3 (centres unmarked) [Example 44, N-[2-(2-Methyl-7,8-dihydro-6H-indeno[5,4-d][1,3]oxazol-8-yl)ethyl]benzamide]	73 to 76
CCNC(=O)NCCC1CCc2ccc3nc(C)oc3c21 (centres unmarked) [Example 46, 1-Ethyl-3-[2-(2-methyl-7,8-dihydro-6H-indeno[5,4-d][1,3]oxazol-8-yl)ethyl]urea]	136 to 138

Molecular target: human melatonin 2 receptors (human MT2 receptors) (Homo sapiens (Human), UniProt P49286)
Sequence (P49286 whole entry): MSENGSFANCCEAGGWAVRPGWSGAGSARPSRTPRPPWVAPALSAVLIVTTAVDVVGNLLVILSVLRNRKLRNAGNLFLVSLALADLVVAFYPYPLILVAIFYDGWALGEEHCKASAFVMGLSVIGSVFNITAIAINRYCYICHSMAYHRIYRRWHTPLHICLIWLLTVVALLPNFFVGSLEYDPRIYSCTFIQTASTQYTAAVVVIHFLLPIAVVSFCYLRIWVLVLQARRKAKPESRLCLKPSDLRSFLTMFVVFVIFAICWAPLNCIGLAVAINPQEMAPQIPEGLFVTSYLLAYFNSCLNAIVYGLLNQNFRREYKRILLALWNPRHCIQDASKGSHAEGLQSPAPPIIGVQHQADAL
Test: Melatonin receptor binding assay, 2-[125I] Iodomelatonin, CHO-hMT2 cell membrane fraction
Details: binding inhibition of 2-[125I] Iodomelatonin, CHO-hMT2 membranes, 25° C., 2.5 hr
Protocol: (§1) Melatonin Receptor Binding Assay
(2) Preparation of CHO-hMT2 Cells Expressing Human Melatonin 2 Receptors
CHO-K1 cells (ATCC, #CCL-61) were plated at the concentration of 1.5×10^5 cells/cm^2 in a 6 well plate (ASAHI TECHNO GLASS), and cultured under the conditions of 37° C., 5% CO2 for 24 hr.
(§2) (3) Preparation of Cell Membrane Fraction of CHO Cell (CHO-hMelR7 and CHO-hMT2) Stably Expressing Human MT1 and MT2 Receptors
(§3) CHO-hMelR7 and CHO-hMT2 cells were plated using Cellfactory (Nunc, #170009) under the conditions of 1×10^8 cells/2000 mL/flask. The cells were grown to confluent, and recovered by the following method. As the medium for CHO-hMelR7 and CHO-hMT2, MEM α containing 10% FBS and penicillin/streptomycin was used. […] of geneticin was added to the medium for CHO-hMT2.
(§4) The medium was discarded, cells were washed twice with 200 mL of EDTA/PBS(−), 200 mL of EDTA/PBS(−) was further added, and the cells were stood still at room temperature for 20 min until they were released. […] The mixture was further centrifuged at 1,500 rpm for 10 min at 4° C., and the obtained pellets were suspended in 20 mL of ice-cooled homogenizing buffer [10 mM NaHCO3, 5 mM EDTA, Protease inhibitor Complete (Roche), pH 7.4]. The cell suspension was homogenized 3 times using a polytron homogenizer at 20,000 rpm for 30 sec. The obtained homogenate was centrifuged (2,000 rpm, 10 min, 4° C.) using a low speed cooling centrifuge. The supernatant was recovered in an ultracentrifugation tube and ultracentrifuged (40,000 rpm, 60 min, 4° C.) using an ultracentrifuge (Beckman, L-90K). To the obtained pellets was added a suspending buffer [50 mM Tris-HCl, 1 mM EDTA, Protease inhibitor Complete (Roche), pH 7.4], and the pellets were suspended by pipetting. The protein concentration of this suspension was measured, diluted to 2 mg/mL to give cell membrane fractions of CHO-hMelR7 and CHO-hMT2 cells. […] Protein was quantified using BCA protein assay kit (Pierce) with BSA as the standard.
(§5) (4) Preparation of Membrane Fraction Suspension
(§6) Immediately before use, the membrane fractions of CHO-hMelR7 and CHO-hMT2 cells of the above-mentioned (3) were diluted 20-fold with assay buffer (50 mM Tris-HCl, pH 7.7).
(§7) Iodomelatonin (#NEX236, PerkinElmer) was diluted with the assay buffer to 400 pM for MT1 and 1 nM for MT2.
(§8) Then, a test compound (compound solution diluted with DMSO to 200-fold of the final measurement concentration) was added by 2 μL. 2 μL of DMSO was added to each well of the total binding control section, and 100 μM cold Melatonin solution (Sigma, diluted with DMSO to 100 μM) was added to each well of the nonspecific binding control section by 2 μL. Then, the membrane fraction suspension (100 μL) was added. […] Iodomelatonin solution of the above-mentioned (5) was added to each well mentioned above by 20 μL, and a binding reaction was carried out at 25° C. for 2.5 hr in a micromixer (TAITEC, Bioshaker M.BR-024).
(§9) Using a cell harvester (PerkinElmer), the binding reaction mixture in each well of the 96-well plate was transferred to a treated (immersed in 50 mM Tris, pH 7.7 in advance) filter plate (UniFilter GF/C, PerkinElmer) and filtered. After filtration, the plate was washed 4 times with the assay buffer, and dried in a dryer (42° C.) for 2 hr or more. 25 μL of a liquid scintillator (MicroScint O, PerkinElmer) was added to each well of the filter plate after drying, and the luminescence of scintillator was measured by TopCount (PerkinElmer) for 1 min.
(§10) Specific binding is a value obtained by subtracting nonspecific binding from the total binding. The binding inhibitory activity of the test compound is shown by the ratio of the value obtained by subtracting the measurement value when the test compound was added from the total binding, to the specific binding.

IC50 [nM]	Compound
9.6	CC(=O)NCC[C@H]1CCc2ccc3nc(C)oc3c21 [Example 13, (R)-N-[2-(2-Methyl-7,8-dihydro-6H-indeno[5,4-d][1,3]oxazol-8-yl)ethyl]acetamide]
0.28	CCC(=O)NCCC1CCc2ccc3nc(C)oc3c21 (centres unmarked) [Example 14, N-[2-(2-Methyl-7,8-dihydro-6H-indeno[5,4-d][1,3]oxazol-8-yl)ethyl]propionamide]
6.2	CCC(=O)NCC[C@H]1CCc2ccc3nc(C)oc3c21 [Example 16, (R)-N-[2-(2-Methyl-7,8-dihydro-6H-indeno[5,4-d][1,3]oxazol-8-yl)ethyl]propionamide]
0.091	CC(=O)NCCC1CCc2ccc3nc(CCCCc4ccccc4)oc3c21 (centres unmarked) [Example 17, N-{2-[2-(4-Phenylbutyl)-7,8-dihydro-6H-indeno[5,4-d][1,3]oxazol-8-yl]ethyl}acetamide]
8.5	CC(=O)NCC[C@H]1CCc2ccc3nc(C)sc3c21 [Example 21, (R)-N-[2-(2-Methyl-7,8-dihydro-6H-indeno[5,4-d][1,3]thiazol-8-yl)ethyl]acetamide]
0.77	Cc1nc2ccc3c(c2o1)C(CCNC(=O)C1CC1)CC3 (centres unmarked) [Example 43, N-[2-(2-Methyl-7,8-dihydro-6H-indeno[5,4-d][1,3]oxazol-8-yl)ethyl]cyclopropanecarboxamide]

Second part, the compound before the results:

Compound	IC50 [nM]
CC(=O)NCCC1CCc2ccc3ncoc3c21 (centres unmarked) [Example 9, N-[2-(7,8-Dihydro-6H-indeno[5,4-d][1,3]oxazol-8-yl)ethyl]acetamide]	0.31
CC(=O)NCCC1CCc2ccc3nc(C)oc3c21 (centres unmarked) [Example 11, N-[2-(2-Methyl-7,8-dihydro-6H-indeno[5,4-d][1,3]oxazol-8-yl)ethyl]acetamide]	0.31

Molecular target: human melatonin 1 receptors (human MT1 receptors) (Homo sapiens (Human), UniProt P48039)
Sequence (P48039 whole entry): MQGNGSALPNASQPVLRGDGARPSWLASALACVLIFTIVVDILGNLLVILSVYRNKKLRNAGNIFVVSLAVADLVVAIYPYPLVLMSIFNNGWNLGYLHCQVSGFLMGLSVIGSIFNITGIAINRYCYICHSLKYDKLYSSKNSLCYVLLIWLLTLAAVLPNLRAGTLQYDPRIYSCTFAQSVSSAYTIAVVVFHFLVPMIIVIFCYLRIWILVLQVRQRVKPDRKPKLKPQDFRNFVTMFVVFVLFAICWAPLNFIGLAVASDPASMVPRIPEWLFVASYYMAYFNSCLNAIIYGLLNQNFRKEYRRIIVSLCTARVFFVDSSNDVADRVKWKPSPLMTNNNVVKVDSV
Test: Melatonin receptor binding assay, 2-[125I] Iodomelatonin, CHO-hMelR7 cell membrane fraction
Details: binding inhibition of 2-[125I] Iodomelatonin, CHO-hMelR7 membranes, 25° C., 2.5 hr
Protocol: as §1
(1) Preparation of CHO-hMelR7 Cells Expressing Human Melatonin 1 Receptors
as §2, §3, §4, §5, §6, §7, §8, §9, §10

IC50 [nM]	Compound
15	CC(=O)NCC[C@H]1CCc2ccc3nc(C)oc3c21 [Example 13, (R)-N-[2-(2-Methyl-7,8-dihydro-6H-indeno[5,4-d][1,3]oxazol-8-yl)ethyl]acetamide]
0.13	CCC(=O)NCCC1CCc2ccc3nc(C)oc3c21 (centres unmarked) [Example 14, N-[2-(2-Methyl-7,8-dihydro-6H-indeno[5,4-d][1,3]oxazol-8-yl)ethyl]propionamide]
11	CCC(=O)NCC[C@H]1CCc2ccc3nc(C)oc3c21 [Example 16, (R)-N-[2-(2-Methyl-7,8-dihydro-6H-indeno[5,4-d][1,3]oxazol-8-yl)ethyl]propionamide]
0.022	CC(=O)NCCC1CCc2ccc3nc(CCCCc4ccccc4)oc3c21 (centres unmarked) [Example 17, N-{2-[2-(4-Phenylbutyl)-7,8-dihydro-6H-indeno[5,4-d][1,3]oxazol-8-yl]ethyl}acetamide]
19	CC(=O)NCC[C@H]1CCc2ccc3nc(C)sc3c21 [Example 21, (R)-N-[2-(2-Methyl-7,8-dihydro-6H-indeno[5,4-d][1,3]thiazol-8-yl)ethyl]acetamide]
0.25	Cc1nc2ccc3c(c2o1)C(CCNC(=O)C1CC1)CC3 (centres unmarked) [Example 43, N-[2-(2-Methyl-7,8-dihydro-6H-indeno[5,4-d][1,3]oxazol-8-yl)ethyl]cyclopropanecarboxamide]

Further lines, the compound ahead of its results:

Compound	IC50 [nM]
CC(=O)NCCC1CCc2ccc3ncoc3c21 (centres unmarked) [Example 9, N-[2-(7,8-Dihydro-6H-indeno[5,4-d][1,3]oxazol-8-yl)ethyl]acetamide]	0.88
CC(=O)NCCC1CCc2ccc3nc(C)oc3c21 (centres unmarked) [Example 11, N-[2-(2-Methyl-7,8-dihydro-6H-indeno[5,4-d][1,3]oxazol-8-yl)ethyl]acetamide]	0.15
